Laboratory results as given in paper PMC5570900, “Exploiting a novel conformational switch to control innate immunity mediated by complement protein C3a” (Nature Communications, 2017).

Target: T1, C3aR (Rattus norvegicus, UniProt O55197)
T1 construct: characterize for the first time a C3aR-induced innate immune response in vivo in rats; from tissue; host or cells: live male Wistar rats, hind paw
T1 sequence (O55197 1-473): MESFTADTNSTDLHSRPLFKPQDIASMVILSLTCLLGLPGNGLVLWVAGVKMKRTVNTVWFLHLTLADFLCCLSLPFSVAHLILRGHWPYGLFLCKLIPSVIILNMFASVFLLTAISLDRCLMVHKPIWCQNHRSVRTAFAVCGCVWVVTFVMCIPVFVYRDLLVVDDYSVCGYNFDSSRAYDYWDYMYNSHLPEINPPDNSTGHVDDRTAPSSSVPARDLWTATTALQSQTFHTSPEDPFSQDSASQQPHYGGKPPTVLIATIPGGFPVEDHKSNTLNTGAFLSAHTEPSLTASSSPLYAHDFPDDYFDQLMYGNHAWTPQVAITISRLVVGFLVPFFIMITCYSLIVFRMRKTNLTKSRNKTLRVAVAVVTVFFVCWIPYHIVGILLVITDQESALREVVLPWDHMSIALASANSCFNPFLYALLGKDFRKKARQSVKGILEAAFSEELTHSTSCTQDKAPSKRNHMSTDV
Experiment: Antagonism of BR103-induced rat paw edema by oral C3aR antagonist
Format: in vivo
Description: Male Wistar rats (8–9 weeks) were injected with BR103 (3, 350 μg in 100 μL isotonic saline) into the plantar surface of both hind paw pads using a 30G needle. The inhibitor cromolyn (20 mg/kg in 5% DMSO) was injected subcutaneously 30 min before the agonist. The antagonist BR111 (6, 5–20 mg/kg in olive oil) was administered orally as a single dose 2 h before the agonist. Paw thickness and width were measured using digital calipers (WPI) at 0, 0.5, 2, 6 and 24 h after agonist BR103 administration. Hind paw size is expressed as % change in area from baseline after 0.5 h and then normalized against maximum swelling induced by agonist alone. Researchers were not blinded to treatments given.
Rat paw tissue was collected and fixed in 4% paraformaldehyde (pH 7.4) for 2 h in the cold room (4 °C). The rat paw tissue was then transferred into falcon tubes containing 30% sucrose solution in PBS and left overnight in the cold room. The next day, rat paw tissue was embedded with the Optimal Cutting Temperature compound (OCT, Sakura Finetek, USA) and stored in the −80 °C freezer before being used for making cryo-sections for histological analysis. Frozen sections of 5 microns were prepared using a cryostat-microtome (Leica Biosystems, Germany) and stained using standard protocols on the same day. In normal histological staining, such as with alcian blue and safranin O and hematoxylin and eosin (H&E), samples were briefly washed with distilled water before staining. In alcian blue and safranin O, samples were stained with 0.1% alcian blue (Sigma-Aldrich, USA) and 0.5% safranin O (Sigma-Aldrich, USA) before being mounted in mounting medium. In H&E, samples were stained with hematoxylin (Sigma-Aldrich, USA) and 0.1% eosin (Sigma-Aldrich, USA) before being mounted in mounting medium. In immunohistochemistry, samples were briefly rinsed with PBS to remove OCT and incubated with blocking medium (PBS, 0.1% triton X-100, 10% horse serum) for 1 h at room temperature. Samples were incubated with primary antibody medium (PBS, 4% horse serum, 1:200 histamine or 1:200 of tryptase or 1:150 ED1 or 1:200 ED2 antibodies) overnight at 4 °C. The next day, samples were washed with PBS and were incubated with the secondary antibody medium (PBS, 4% horse serum, detection antibody 1:1000) for 1 h at room temperature. The samples were briefly rinsed, dried and counterstained with DAPI (Invitrogen, Australia). Primary antibodies for histamine (Sigma-Aldrich, USA, H2403, monoclonal rabbit anti-rat IgG, 1: 200), tryptase (Abcam, Australia, ab2378, monoclonal mouse anti-rat IgG, 1:200), ED1 (Serotec, UK, MCA341R, monoclonal mouse anti-rat, 1:150), ED2 (Serotec, UK, MCA3424R, monoclonal mouse anti-rat, 1:200) were purchased from commercial sources. Secondary detection antibody was purchased from (Invitrogen, Australia). ED1 & ED2 positive cells were quantified using FIJI/ImageJ 1.42q software, U.S. National Institutes of Health, Bethesda, MD, USA[44]. All microscope images were obtained using an Olympus BX-51 upright microscope with Olympus DP-71 12Mp colour camera, utilizing DP Capture and DP Manager software packages (Olympus, Tokyo, Japan). Researchers who performed histological analysis and scoring were blinded to the sample identity.
Rat paw tissues were collected and immediately frozen with liquid nitrogen. The frozen rat paw tissue samples were weighed and crushed into smaller pieces with a mortar and pestle in liquid nitrogen. […]

SMILES: N=C(N)NCCCC(NC(=O)c1ccc(C(c2ccccc2)c2ccccc2)s1)C(=O)O (centres unmarked) [Compound 6]
- Effect on BR103-induced infiltration of ED1 macrophages (20 mg/kg p.o., 2 h prior, 0.5 h): prevented the increased infiltration of inflammatory ED1 macrophages
- Effect on BR103-induced proinflammatory cytokine and chemokine gene expression (20 mg/kg p.o., 2 h prior, 30 min): suppression of BR103-induced gene expression of proinflammatory cytokines and chemokines
- Effect on BR103-induced mast cell activation and degranulation and histamine secretion (20 mg/kg p.o., 2 h prior, 0.5 h after agonist): attenuated
- Effect on BR103-induced neutrophil activation (MPO activity) (20 mg/kg p.o., 2 h prior, 6 h after BR103): attenuated neutrophil activation at 6 h
- Effect on BR103-induced paw edema (oral pretreatment 2 h before BR103 350 µg/paw i.pl., 5–20 mg/kg p.o., swelling at 30 min): strongly inhibited acute rat paw edema
